Where “and” joins values, the source holds several entries; their conditions need not be identical. Equal entries are not always repeated. Results filed as inconclusive are left out.
Test system: BDF1 mice, s.c. Lewis lung carcinoma, T/C %
Assay: NCI In Vivo Anticancer Drug Screen. Data for tumor model Lewis Lung Carcinoma (subcutaneous) in B6D2F1 (BDF1) mice
How it was run: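 Transplanted tumors grown in mice; compound vs vehicle dosing; endpoint survival or tumor size; ratio T/C.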

N=C(N)Sc1cc(O)ccc1O
T/C (endpoint: median survival time, dose: 12.5 mg/kg/injection, schedule: Q01DX009 (ip), vehicle: other, higher = longer survival): 102 % of control | T/C (endpoint: median survival time, dose: 18.75 mg/kg/injection, schedule: Q01DX009 (ip), vehicle: saline, higher = longer survival): 120 % of control | T/C (endpoint: median survival time, dose: 25.0 mg/kg/injection, schedule: Q01DX009 (ip), vehicle: other, higher = longer survival): 103 % of control | T/C (endpoint: median survival time, dose: 37.5 mg/kg/injection, schedule: Q01DX009 (ip), vehicle: saline, higher = longer survival): 92 % of control | T/C (endpoint: median survival time, dose: 50.0 mg/kg/injection, schedule: Q01DX009 (ip), vehicle: other, higher = longer survival): 93 % of control | T/C (endpoint: median survival time, dose: 100.0 mg/kg/injection, schedule: Q01DX009 (ip), vehicle: other, higher = longer survival): 100 % of control | T/C (endpoint: median survival time, dose: 200.0 mg/kg/injection, schedule: Q01DX009 (ip), vehicle: other, higher = longer survival): 93 % of control | T/C (endpoint: median survival time, dose: 300.0 mg/kg/injection, schedule: Q01DX009 (ip), vehicle: saline, higher = longer survival): 91 % of control

O=NN(CCCl)C(=O)NC1CCCCC1
T/C (endpoint: median survival time, dose: 0.12 mg/kg/injection, schedule: Q08HX024 (ip), vehicle: Klucel (hydroxypropylcellulose) (HPC), higher = longer survival): 91 % of control | T/C (endpoint: median survival time, dose: 0.12 mg/kg/injection, schedule: Q08HX024 (ip), vehicle: saline, higher = longer survival): 181 % of control | T/C (endpoint: median survival time, dose: 0.25 mg/kg/injection, schedule: Q08HX024 (ip), vehicle: Klucel (hydroxypropylcellulose) (HPC), higher = longer survival): 106 % of control and 111 % of control | T/C (endpoint: median survival time, dose: 0.25 mg/kg/injection, schedule: Q08HX024 (ip), vehicle: saline, higher = longer survival): 182 % of control | T/C (endpoint: median survival time, dose: 0.5 mg/kg/injection, schedule: Q08HX024 (ip), vehicle: Klucel (hydroxypropylcellulose) (HPC), higher = longer survival): 103 % of control and 115 % of control | T/C (endpoint: median survival time, dose: 0.5 mg/kg/injection, schedule: Q08HX024 (ip), vehicle: saline, higher = longer survival): 103 % of control | T/C (endpoint: median survival time, dose: 1.0 mg/kg/injection, schedule: Q08HX024 (ip), vehicle: Klucel (hydroxypropylcellulose) (HPC), higher = longer survival): 119 % of control | T/C (endpoint: median survival time, dose: 1.0 mg/kg/injection, schedule: Q08HX024 (ip), vehicle: saline, higher = longer survival): 91 % of control | T/C (endpoint: median survival time, dose: 2.4 mg/kg/injection, schedule: Q01DX001 (ip), vehicle: other, higher = longer survival): 120 % of control | T/C (endpoint: median survival time, dose: 4.0 mg/kg/injection, schedule: Q01DX009 (ip), vehicle: saline with Tween-80, higher = longer survival): 112 % of control | T/C (endpoint: median survival time, dose: 4.7 mg/kg/injection, schedule: Q01DX001 (ip), vehicle: other, higher = longer survival): 109 % of control | T/C (endpoint: median survival time, dose: 5.0 mg/kg/injection, schedule: Q01DX001 (ip), vehicle: Klucel (hydroxypropylcellulose) (HPC), higher = longer survival): 95 % of control and 106 % of control and 123 % of control | T/C (endpoint: median survival time, dose: 8.0 mg/kg/injection, schedule: Q01DX009 (ip), vehicle: saline with Tween-80, higher = longer survival): 120 % of control | T/C (endpoint: median survival time, dose: 9.5 mg/kg/injection, schedule: Q01DX001 (ip), vehicle: other, higher = longer survival): 105 % of control | T/C (endpoint: median survival time, dose: 10.0 mg/kg/injection, schedule: Q01DX001 (ip), vehicle: Klucel (hydroxypropylcellulose) (HPC), higher = longer survival): 86 % of control and 91 % of control and 111 % of control | T/C (endpoint: median survival time, dose: 12.5 mg/kg/injection, schedule: Q01DX001 (ip), vehicle: Klucel (hydroxypropylcellulose) (HPC), higher = longer survival): 93 % of control and 113 % of control | T/C (endpoint: median survival time, dose: 12.5 mg/kg/injection, schedule: Q01DX001 (ip), vehicle: saline with Tween-80, higher = longer survival): 158 % of control | T/C (endpoint: median survival time, dose: 18.9 mg/kg/injection, schedule: Q01DX001 (ip), vehicle: other, higher = longer survival): 150 % of control | T/C (endpoint: median survival time, dose: 20.0 mg/kg/injection, schedule: Q01DX001 (ip), vehicle: Klucel (hydroxypropylcellulose) (HPC), higher = longer survival): 97 % of control and 115 % of control | T/C (endpoint: median survival time, dose: 25.0 mg/kg/injection, schedule: Q01DX001 (ip), vehicle: Klucel (hydroxypropylcellulose) (HPC), higher = longer survival): 108 % of control | T/C (endpoint: median survival time, dose: 27.0 mg/kg/injection, schedule: Q11DX002 (ip), vehicle: Klucel (hydroxypropylcellulose) (HPC), higher = longer survival): 111 % of control | T/C (endpoint: median survival time, dose: 32.0 mg/kg/injection, schedule: Q01DX009 (ip), vehicle: Klucel (hydroxypropylcellulose) (HPC), higher = longer survival): 94 % of control | T/C (endpoint: median survival time, dose: 33.0 mg/kg/injection, schedule: Q01DX001 (ip), vehicle: carboxymethylcellulose (CMC), higher = longer survival): 102 % of control | T/C (endpoint: median survival time, dose: 33.0 mg/kg/injection, schedule: Q06DX002 (ip), vehicle: carboxymethylcellulose (CMC), higher = longer survival): 180 % of control | T/C (endpoint: median survival time, dose: 33.0 mg/kg/injection, schedule: Q08DX002 (ip), vehicle: carboxymethylcellulose (CMC), higher = longer survival): 100 % of control | T/C (endpoint: median survival time, dose: 33.0 mg/kg/injection, schedule: Q12DX002 (ip), vehicle: carboxymethylcellulose (CMC), higher = longer survival): 102 % of control | T/C (endpoint: median survival time, dose: 37.8 mg/kg/injection, schedule: Q01DX001 (ip), vehicle: other, higher = longer survival): 160 % of control | T/C (endpoint: median survival time, dose: 40.0 mg/kg/injection, schedule: Q11DX002 (ip), vehicle: Klucel (hydroxypropylcellulose) (HPC), higher = longer survival): 79 % of control and 97 % of control | T/C (endpoint: median survival time, dose: 40.0 mg/kg/injection, schedule: Q11DX002 (oral), vehicle: Klucel (hydroxypropylcellulose) (HPC), higher = longer survival): 86 % of control | T/C (endpoint: median survival time, dose: 50.0 mg/kg/injection, schedule: Q01DX001 (ip), vehicle: Klucel (hydroxypropylcellulose) (HPC), higher = longer survival): 67 % of control | T/C (endpoint: median survival time, dose: 50.0 mg/kg/injection, schedule: Q01DX001 (ip), vehicle: carboxymethylcellulose (CMC), higher = longer survival): 100 % of control | T/C (endpoint: median survival time, dose: 50.0 mg/kg/injection, schedule: Q06DX002 (ip), vehicle: carboxymethylcellulose (CMC), higher = longer survival): 151 % of control | T/C (endpoint: median survival time, dose: 50.0 mg/kg/injection, schedule: Q08DX002 (ip), vehicle: carboxymethylcellulose (CMC), higher = longer survival): 92 % of control | T/C (endpoint: median survival time, dose: 50.0 mg/kg/injection, schedule: Q10DX002 (ip), vehicle: carboxymethylcellulose (CMC), higher = longer survival): 103 % of control | T/C (endpoint: median survival time, dose: 50.0 mg/kg/injection, schedule: Q12DX002 (ip), vehicle: carboxymethylcellulose (CMC), higher = longer survival): 115 % of control | T/C (endpoint: median survival time, dose: 60.0 mg/kg/injection, schedule: Q11DX002 (ip), vehicle: Klucel (hydroxypropylcellulose) (HPC), higher = longer survival): 53 % of control and 113 % of control | T/C (endpoint: median survival time, dose: 60.0 mg/kg/injection, schedule: Q11DX002 (oral), vehicle: Klucel (hydroxypropylcellulose) (HPC), higher = longer survival): 90 % of control | T/C (endpoint: median survival time, dose: 75.7 mg/kg/injection, schedule: Q01DX001 (ip), vehicle: other, higher = longer survival): 124 % of control | T/C (endpoint: median survival time, dose: 80.0 mg/kg/injection, schedule: Q01DX001 (ip), vehicle: Klucel (hydroxypropylcellulose) (HPC), higher = longer survival): 112 % of control | T/C (endpoint: median survival time, dose: 90.0 mg/kg/injection, schedule: Q11DX002 (oral), vehicle: Klucel (hydroxypropylcellulose) (HPC), higher = longer survival): 75 % of control | T/C (endpoint: median survival time, dose: 100.0 mg/kg/injection, schedule: Q01DX001 (ip), vehicle: saline with Tween-80, higher = longer survival): 154 % of control | T/C (endpoint: median survival time, dose: 160.0 mg/kg/injection, schedule: Q01DX001 (ip), vehicle: Klucel (hydroxypropylcellulose) (HPC), higher = longer survival): 110 % of control | T/C (endpoint: median tumor weight (est.), dose: 4.0 mg/kg/injection, schedule: Q01DX009 (ip), vehicle: Klucel (hydroxypropylcellulose) (HPC), higher = larger tumour): 66 % of control | T/C (endpoint: median tumor weight (est.), dose: 8.0 mg/kg/injection, schedule: Q01DX009 (ip), vehicle: Klucel (hydroxypropylcellulose) (HPC), higher = larger tumour): 46 % of control | T/C (endpoint: median tumor weight (est.), dose: 12.5 mg/kg/injection, schedule: Q01DX001 (ip), vehicle: Klucel (hydroxypropylcellulose) (HPC), higher = larger tumour): 88 % of control | T/C (endpoint: median tumor weight (est.), dose: 16.0 mg/kg/injection, schedule: Q01DX009 (ip), vehicle: Klucel (hydroxypropylcellulose) (HPC), higher = larger tumour): 3 % of control | T/C (endpoint: median tumor weight (est.), dose: 19.0 mg/kg/injection, schedule: Q01DX001 (ip), vehicle: carboxymethylcellulose (CMC), higher = larger tumour): 72 % of control | T/C (endpoint: median tumor weight (est.), dose: 25.0 mg/kg/injection, schedule: Q01DX001 (ip), vehicle: Klucel (hydroxypropylcellulose) (HPC), higher = larger tumour): 48 % of control | T/C (endpoint: median tumor weight (est.), dose: 38.0 mg/kg/injection, schedule: Q01DX001 (ip), vehicle: carboxymethylcellulose (CMC), higher = larger tumour): 46 % of control | T/C (endpoint: median tumor weight (est.), dose: 57.0 mg/kg/injection, schedule: Q01DX001 (ip), vehicle: carboxymethylcellulose (CMC), higher = larger tumour): 34 % of control
